test system: mice; assay: acetic acid-induced stretching/writhing test in mice (based on Koster et al.); type: in vivo; details: Mus musculus, sc; subcutaneous, 30 minutes before peritoneal acetic acid (100 mg/kg); mice fasted 24 hours; 15 minute observation; read-out: ED50 (amount producing the desired inhibition of stretching or "writhing" in 50 percent of a population)
Source text: Illustrative examples of the activity for use as described above for the novel compounds of the present invention are shown as the compound of the noted examples described in the following material when administered in a test based on that of Koster et al. [Fed. Proc., Vol. 18 (1959), p. 412] in which the peritoneal injection of acetic acid to mice provokes repeated stretching and twisting movements which persist for more than six hours. Analgesics prevent or suppress these syndromes which are considered to be an exteriorization of a diffuse abdominal pain. A 1% solution of acetic acid in water is used at a dose of 0.01 ml/g or 100 mg/kg of acetic acid to release the syndrome.
The compound to be tested is subcutaneously administered 30 minutes before the acetic acid injection and the mice are fasted 24 hours before the start of the test. The stretching for the mice is observed and totaled for each mouse in a 15 minute observation period starting just after the acetic acid injection. The results are expressed as mg/kg which amount produces the desired inhibition of stretching or "writhing" in 50 percent of a population.

| Compound | ED50 [mg/kg] |
| --- | --- |
| CCCCCCCCNC(=O)Cc1ccc(O)c(F)c1 [Example 3, Benzeneacetamide, 3-Fluoro-4-hydroxy-N-octyl-] | 3.2 |
| CCCCCCCCNC(=O)Cc1ccc(O)c(Br)c1 [Example 2, Benzeneacetamide, 3-Bromo-4-hydroxy-N-octyl-] | 2.5 |
| CCCCCCCCNC(=O)Cc1ccc(O)c(Cl)c1 [Example 1, Benzeneacetamide, 3-Chloro-4-hydroxy-N-octyl-] | 6.1 |
